The results in this text go back to US10285983B2, “3-(1H-pyrrolo[2,3-B]pyridin-2-yl)-1H-pyrazolo[3,4-B] pyridines and therapeutic uses thereof” (Samumed, LLC, priority 2015, dated 2019).

Molecules are shown by their SMILES. Some results are limits rather than exact numbers.

This test deals with Wnt activity (Sp5-Luc reporter, SW480 colon carcinoma cells). Put plainly: Wnt activity screening assay, Sp5-Luc reporter gene in SW480 cells. It counts as cell-based. To be noted: Homo sapiens; for inhibition at 10 µM: given for EC50 >10 μM, read-out: percent inhibition at 10 μM; for EC50: overnight incubation. An excerpt:
The screening assay for Wnt activity is described as follows. Reporter cell lines can be generated by stably transducing cancer cell lines (e.g., colon cancer) or primary cells (e.g., IEC-6 intestinal cells) with a lentiviral construct that includes a Wnt-responsive promoter driving expression of the firefly luciferase gene.
SW480 colon carcinoma cells were transduced with a lentiviral vector expressing luciferase with a human Sp5 promoter consisting of a sequence of eight TCF/LEF binding sites. SW480 cells stably expressing the Sp5-Luc reporter gene and a hygromycin resistance gene were selected by treatment with 150 μg/mL of hygromycin for 7 days. These stably transduced SW480 cells were expanded in cell culture and used for all further screening activities. Each compound was dissolved in DMSO as a 10 mM stock and used to prepare compound source plates. Serial dilution (1:3, 10-point dose-response curves starting from 10 μM) and compound transfer was performed using the ECHO 550 (Labcyte, Sunnyvale, Calif.) into 384-well white solid bottom assay plates (Greiner Bio-One) with appropriate DMSO backfill for a final DMSO concentration of 0.1%. For Sp5-Luc reporter gene assays, the cells were plated at 4,000 cells/well in 384-well plates with medium containing 1% fetal bovine serum and incubated overnight at 37° C. and 5% CO2. Following incubation, 20 μl of BrightGlo luminescence reagent (Promega) was added to each well of the 384-well assay plates. The plates were placed on an orbital shaker for 2 min and then luminescence was quantified using the Envision (Perkin Elmer) plate reader. Readings were normalized to DMSO only treated cells, and normalized activities were utilized for EC50 calculations using the dose-response log (inhibitor) vs. response—variable slope (four parameters) nonlinear regression feature available in GraphPad Prism 5.0 (or Dotmatics). For EC50 of >10 μM, the percent inhibition at 10 μM is provided.
(In a reporter assay the amount or activity of a reporter protein is the signal.)

For orientation: inhibition means the drop in the measured response relative to a control, in per cent. The EC50 is the midpoint of the concentration-response curve. A high value points to a need for much substance. On to `CCC(=O)Nc1cncc(-c2cnc3[nH]nc(-c4cc5c(-c6cccc(F)c6)ccnc5[nH]4)c3c2)c1` [Compound 1, N-(5-(3-(4-(3-Fluorophenyl)-1H-pyrrolo[2,3-b]pyridin-2-yl)-1H-pyrazolo [3,4-b]pyridin-5-yl)pyridin-3-yl)propionamide], for which the inhibition at 10 µM was found to be 46.1% and the concentration for a half-maximal effect (EC50) is above 10 µM.

With `Fc1cccc(-c2ccnc3[nH]c(-c4n[nH]c5ncc(-c6cccnc6)cc45)cc23)c1` [Compound 4, 3-(4-(3-Fluorophenyl)-1H-pyrrolo[2,3-b]pyridin-2-yl)-5-(pyridin-3-yl)-1H-pyrazolo[3,4-b]pyridine], the inhibition at 10 µM turned out to be 7.6% and the EC50 was above 10 µM.

For `O=C(Nc1cncc(-c2cnc3[nH]nc(-c4cc5c(-c6cccc(F)c6)ccnc5[nH]4)c3c2)c1)c1ccccc1` [Compound 11, N-(5-(3-(4-(3-Fluorophenyl)-1H-pyrrolo[2,3-b]pyridin-2-yl)-1H-pyrazolo [3,4-b]pyridin-5-yl)pyridin-3-yl)benzamide], the inhibition at 10 µM is 10% and the half-maximal effective concentration (EC50) is above 10 µM.

As for `Fc1cccc(-c2ccnc3[nH]c(-c4n[nH]c5ncc(-c6ccncc6)cc45)cc23)c1` [Compound 18, 3-(4-(3-Fluorophenyl)-1H-pyrrolo[2,3-b]pyridin-2-yl)-5-(pyridin-4-yl)-1H-pyrazolo[3,4-b]pyridine], the inhibition at 10 µM was 11.7% and the concentration giving a half-maximal response (EC50) is above 10 µM.

For the compound `O=C(Nc1cncc(-c2cnc3[nH]nc(-c4cc5c(-c6cccc(F)c6)ccnc5[nH]4)c3c2)c1)C1CC1` [Compound 20, N-(5-(3-(4-(3-Fluorophenyl)-1H-pyrrolo[2,3-b]pyridin-2-yl)-1H-pyrazolo [3,4-b]pyridin-5-yl)pyridin-3-yl)cyclopropanecarboxamide], the inhibition at 10 µM was determined as 57.3% and the concentration for a half-maximal effect (EC50) is above 10 µM.

For `Fc1cccc(-c2ccnc3[nH]c(-c4n[nH]c5ncc(-c6ccccn6)cc45)cc23)c1` [Compound 28, 3-(4-(3-Fluorophenyl)-1H-pyrrolo[2,3-b]pyridin-2-yl)-5-(pyridin-2-yl)-1H-pyrazolo[3,4-b]pyridine], the inhibition at 10 µM is 15% and the EC50 was above 10 µM.

Turning to `CC(C)CC(=O)Nc1cncc(-c2cnc3[nH]nc(-c4cc5c(-c6ccc(F)cc6)ccnc5[nH]4)c3c2)c1` [Compound 30, N-(5-(3-(4-(4-Fluorophenyl)-1H-pyrrolo[2,3-b]pyridin-2-yl)-1H-pyrazolo [3,4-b]pyridin-5-yl)pyridin-3-yl)-3-methylbutanamide], the inhibition at 10 µM is 11.9% and the EC50 was above 10 µM.

`Fc1ccc(-c2ccnc3[nH]c(-c4n[nH]c5ncc(-c6cncc(CN7CCCCC7)c6)cc45)cc23)cc1` [Compound 43, 3-(4-(4-Fluorophenyl)-1H-pyrrolo[2,3-b]pyridin-2-yl)-5-(5-(piperidin-1-ylmethyl)pyridin-3-yl)-1H-pyrazolo[3,4-b]pyridine]: the inhibition at 10 µM was 2.8% and the concentration for a half-maximal effect (EC50) was above 10 µM.

Consider `O=C(Nc1cncc(-c2cnc3[nH]nc(-c4cc5c(-c6ccc(F)cc6)ccnc5[nH]4)c3c2)c1)C1CCCCC1` [Compound 51, N-(5-(3-(4-(4-Fluorophenyl)-1H-pyrrolo[2,3-b]pyridin-2-yl)-1H-pyrazolo [3,4-b]pyridin-5-yl)pyridin-3-yl)cyclohexanecarboxamide], for which the inhibition at 10 µM turned out to be 14.2% and the EC50 is above 10 µM.

Turning to `Fc1ccc(-c2ccnc3[nH]c(-c4n[nH]c5ncc(-c6cncc(CN7CCC(F)(F)C7)c6)cc45)cc23)cc1` [Compound 54, 5-(5-((3,3-Difluoropyrrolidin-1-yl)methyl)pyridin-3-yl)-3-(4-(4-fluorophenyl)-1H-pyrrolo[2,3-b]pyridin-2-yl)-1H-pyrazolo[3,4-b]pyridine], the inhibition at 10 µM worked out at 8.7% and the EC50 was above 10 µM.

`Fc1ccc(-c2ccnc3[nH]c(-c4n[nH]c5ncc(-c6cncnc6)cc45)cc23)cc1` [Compound 55, 3-(4-(4-Fluorophenyl)-1H-pyrrolo[2,3-b]pyridin-2-yl)-5-(pyrimidin-5-yl)-1H-pyrazolo[3,4-b]pyridine]: the inhibition at 10 µM worked out at 13.6% and the concentration for a half-maximal effect (EC50) is above 10 µM.

As for `CC(C)C(=O)Nc1cncc(-c2cnc3[nH]nc(-c4cc5c(-c6ccccc6F)ccnc5[nH]4)c3c2)c1` [Compound 65, N-(5-(3-(4-(2-Fluorophenyl)-1H-pyrrolo[2,3-b]pyridin-2-yl)-1H-pyrazolo [3,4-b]pyridin-5-yl)pyridin-3-yl)isobutyramide], the inhibition at 10 µM was 30.8% and the concentration for a half-maximal effect (EC50) was above 10 µM.

Consider `CC(C)(C)CC(=O)Nc1cncc(-c2cnc3[nH]nc(-c4cc5c(-c6ccccc6F)ccnc5[nH]4)c3c2)c1` [Compound 72, N-(5-(3-(4-(2-Fluorophenyl)-1H-pyrrolo[2,3-b]pyridin-2-yl)-1H-pyrazolo [3,4-b]pyridin-5-yl)pyridin-3-yl)-3,3-dimethylbutanamide], for which the inhibition at 10 µM worked out at 16% and the concentration giving a half-maximal response (EC50) was above 10 µM.

With `O=C(Nc1cncc(-c2cnc3[nH]nc(-c4cc5c(-c6ccccc6F)ccnc5[nH]4)c3c2)c1)C1CCCC1` [Compound 78, N-(5-(3-(4-(2-Fluorophenyl)-1H-pyrrolo[2,3-b]pyridin-2-yl)-1H-pyrazolo [3,4-b]pyridin-5-yl)pyridin-3-yl)cyclopentanecarboxamide], the inhibition at 10 µM is 17% and the concentration for a half-maximal effect (EC50) is above 10 µM.

As for `c1cncc(-c2cnc3[nH]nc(-c4cc5c(-c6cccnc6)ccnc5[nH]4)c3c2)c1` [Compound 88, 5-(Pyridin-3-yl)-3-(4-(pyridin-3-yl)-1H-pyrrolo[2,3-b]pyridin-2-yl)-1H-pyrazolo[3,4-b]pyridine], the inhibition at 10 µM turned out to be 17% and the concentration giving a half-maximal response (EC50) is above 10 µM.

For the compound `CC(C)C(=O)Nc1cncc(-c2cnc3[nH]nc(-c4cc5c(-c6cccnc6)ccnc5[nH]4)c3c2)c1` [Compound 93, N-(5-(3-(4-(Pyridin-3-yl)-1H-pyrrolo[2,3-b]pyridin-2-yl)-1H-pyrazolo[3,4-b]pyridin-5-yl)pyridin-3-yl)isobutyramide], the inhibition at 10 µM is 15.4% and the EC50 is above 10 µM.

On to `CC(C)Nc1cncc(-c2cnc3[nH]nc(-c4cc5c(-c6cccnc6)ccnc5[nH]4)c3c2)c1` [Compound 96, N-Isopropyl-5-(3-(4-(pyridin-3-yl)-1H-pyrrolo[2,3-b]pyridin-2-yl)-1H-pyrazolo[3,4-b]pyridin-5-yl)pyridin-3-amine], for which the inhibition at 10 µM is 30.1% and the concentration giving a half-maximal response (EC50) was above 10 µM.

Take `O=C(Nc1cncc(-c2cnc3[nH]nc(-c4cc5c(-c6cccnc6)ccnc5[nH]4)c3c2)c1)C1CC1` [Compound 104, N-(5-(3-(4-(Pyridin-3-yl)-1H-pyrrolo[2,3-b]pyridin-2-yl)-1H-pyrazolo[3,4-b]pyridin-5-yl)pyridin-3-yl)cyclopropanecarboxamide]: the inhibition at 10 µM is 0% and the EC50 was above 10 µM.

For `Cc1ccncc1-c1cnc2[nH]nc(-c3cc4c(-c5ccncc5)ccnc4[nH]3)c2c1` [Compound 117, 5-(4-Methylpyridin-3-yl)-3-(4-(pyridin-4-yl)-1H-pyrrolo[2,3-b]pyridin-2-yl)-1H-pyrazolo[3,4-b]pyridine], the inhibition at 10 µM was 13% and the 50% effective concentration (EC50) was above 10 µM.

On to `O=C(Nc1cncc(-c2cnc3[nH]nc(-c4cc5c(-c6ccncc6)ccnc5[nH]4)c3c2)c1)c1ccccc1` [Compound 123, N-(5-(3-(4-(Pyridin-4-yl)-1H-pyrrolo[2,3-b]pyridin-2-yl)-1H-pyrazolo[3,4-b]pyridin-5-yl)pyridin-3-yl)benzamide], for which the inhibition at 10 µM stood at 5.2% and the EC50 was above 10 µM.

Take `c1cc(-c2cnc3[nH]nc(-c4cc5c(-c6ccncc6)ccnc5[nH]4)c3c2)ccn1` [Compound 130, 5-(Pyridin-4-yl)-3-(4-(pyridin-4-yl)-1H-pyrrolo[2,3-b]pyridin-2-yl)-1H-pyrazolo[3,4-b]pyridine]: the inhibition at 10 µM was 6.3% and the concentration giving a half-maximal response (EC50) is above 10 µM.

Turning to `O=C(Nc1cncc(-c2cnc3[nH]nc(-c4cc5c(-c6ccncc6)ccnc5[nH]4)c3c2)c1)C1CCCCC1` [Compound 135, N-(5-(3-(4-(Pyridin-4-yl)-1H-pyrrolo[2,3-b]pyridin-2-yl)-1H-pyrazolo[3,4-b]pyridin-5-yl)pyridin-3-yl)cyclohexanecarboxamide], the inhibition at 10 µM was found to be 16.4% and the EC50 is above 10 µM.

On to `c1ccc(-c2cnc3[nH]nc(-c4cc5c(-c6ccncc6)ccnc5[nH]4)c3c2)nc1` [Compound 140, 5-(Pyridin-2-yl)-3-(4-(pyridin-4-yl)-1H-pyrrolo[2,3-b]pyridin-2-yl)-1H-pyrazolo[3,4-b]pyridine], for which the inhibition at 10 µM came out at 12.3% and the EC50 was above 10 µM.

`CC(C)(C)C(=O)Nc1cncc(-c2cnc3[nH]nc(-c4cc5c(N6CCCCC6)ccnc5[nH]4)c3c2)c1` [Compound 176, N-(5-(3-(4-(Piperidin-1-yl)-1H-pyrrolo[2,3-b]pyridin-2-yl)-1H-pyrazolo[3,4-b]pyridin-5-yl)pyridin-3-yl)pivalamide]: the inhibition at 10 µM worked out at 5% and the EC50 is above 10 µM.
